Values joined by “and” are separate entries in the source; they are usually repeats but may differ in a detail not shown here. Equal values may be shown once.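 96-well plates; 48 h exposure; 5 concentrations. Endpoints by linear interpolation between flanking doses. Not reached: highest tested concentration assigned. GI50 marks 50% less growth. TGI marks complete inhibition of growth.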
What was measured:
Assay in all cases: NCI tumour cell line growth inhibition, 48 h
XF 498 CNS = test system: XF 498 CNS
RXF-631 renal = test system: RXF-631 renal
HOP-18 NSCLC = test system: HOP-18 NSCLC
KM20L2 colon = test system: KM20L2 colon
LXFL 529 NSCLC = test system: LXFL 529 NSCLC
DLD-1 colon = test system: DLD-1 colon
SNB-78 CNS = test system: SNB-78 CNS
DMS 114 small cell lung = test system: DMS 114 small cell lung
MDA-N = test system: MDA-N
P388/ADR leukemia = test system: P388/ADR leukemia
P388 leukemia = test system: P388 leukemia
SN12K1 renal = test system: SN12K1 renal

Row | SMILES | TGI (XF 498 CNS) | TGI (RXF-631 renal) | TGI (HOP-18 NSCLC) | TGI (KM20L2 colon) | TGI (LXFL 529 NSCLC) | TGI (DLD-1 colon) | TGI (SNB-78 CNS) | TGI (DMS 114 small cell lung) | other results
1 | Cc1ccc(C2=NO[C@@H]3C(=O)N(c4ccc(Cc5ccc(N6C(=O)[C@H]7C(c8ccc(C)cc8)=NO[C@H]7C6=O)cc5)cc4)C(=O)[C@H]23)cc1 | > 100 µM | > 100 µM | > 100 µM | > 100 µM | > 100 µM | > 100 µM | > 100 µM | > 100 µM | 
2 | O=C(O)c1cccc(CC(Br)C(=O)O)c1 (stereo not drawn) |  |  |  |  |  |  |  |  | TGI (MDA-N): > 100 µM
3 | O=C1c2ccccc2C(=O)c2nc(-c3ccccc3)c(-c3ccccc3)nc21 | > 100 µM | > 100 µM | > 100 µM | > 100 µM | > 100 µM | > 100 µM | > 100 µM | > 100 µM | 
4 | Cn1c2cccc3nnc4cccc(c4c32)n1C | > 100 µM | > 100 µM |  | > 100 µM | > 100 µM | > 100 µM | > 100 µM | > 100 µM | 
5 | COC(=O)C1C(=O)O[C@@H](c2ccc(OC)cc2OC)C1C(=O)OC (stereo partly drawn) | > 100 µM |  | > 100 µM | > 100 µM | > 100 µM | > 100 µM | > 100 µM | > 100 µM | 
6 | O=C(CC(=O)C(F)(F)F)c1csc2ccccc12 |  |  |  | > 100 µM | > 100 µM |  | > 100 µM | > 100 µM | 
7 | O=C(C=Nc1ccccc1C(=O)[O-])c1cccs1.O=C(C=Nc1ccccc1C(=O)[O-])c1cccs1.[Cu+2] |  |  |  | > 100 µM |  | > 10 µM |  |  | 
8 | CC(=O)Nc1ccc(/C=C/C(=O)c2sc(C(N)=S)nc2C)cc1 |  |  | > 100 µM | > 100 µM |  | > 100 µM | > 100 µM | > 100 µM | 
9 | Cc1ncc([N+](=O)[O-])n1CCNC(=O)CCn1ccnc1[N+](=O)[O-] |  |  |  |  |  |  |  |  | TGI (MDA-N): > 100 µM
10 | CC1OC(O)CC(OC(=O)c2ccccc2)C1OC(=O)c1ccccc1 (stereo not drawn) | 34.6 µM |  | 56.8 µM | > 100 µM | 29.8 µM | 28.4 µM |  |  | 
11 | O=C(/C=C/c1ccccc1)CCC1C(=O)NC(=O)NC1=O |  |  |  |  |  |  |  |  | TGI (MDA-N): > 100 µM
12 | COc1ccccc1NC(=O)C1=C(C)NC(C)=C(C(=O)Nc2ccccc2OC)C1c1ccccc1OC |  | > 100 µM | > 100 µM | > 100 µM | > 100 µM | > 100 µM | > 100 µM | > 100 µM | 
13 | NC(=S)N/N=C(/C(=O)Nc1nc2ccc([N+](=O)[O-])cc2s1)C1C(=O)NC(=S)NC1=O |  |  |  |  |  |  |  |  | TGI (MDA-N): > 100 µM
14 | O=S1c2ccc(Cl)cc2CC(SSC2Cc3cc(Cl)ccc3S(=O)c3ccccc32)c2ccccc21 (stereo not drawn) |  | > 100 µM | > 100 µM | > 100 µM | > 100 µM | > 100 µM | > 100 µM | > 100 µM | 
15 | COC(=O)C1=CC2OC13CC1CCC3(C2=O)C1(C)C (stereo not drawn) | 13.4 µM | 28 µM | 24 µM | 27.1 µM | 16.7 µM |  | 36.5 µM | 20.3 µM | 
16 | COC(=O)C1=CC2OC1(C)C1(CC1)C2=O (stereo not drawn) | 28.1 µM |  |  | 36.6 µM | 32.9 µM | 37.3 µM |  |  | 
17 | CCOC(=O)/C=C1\Nc2ccccc2-n2nnnc21 |  |  | > 100 µM | > 100 µM | > 100 µM | > 100 µM | > 100 µM | > 100 µM | 
18 | COC(=O)C(=O)C(C(=O)C(=O)Nc1cc([N+](=O)[O-])ccc1[N+](=O)[O-])c1nc2ccc(C(=O)c3ccccc3)cc2[nH]c1=O (stereo not drawn) | 30.9 µM | > 100 µM | 95.1 µM |  | 57.9 µM | > 100 µM | 58.6 µM | 66.5 µM | 
19 | Nc1nccc(Nc2ccc(S(N)(=O)=O)cc2)n1 |  |  |  |  |  |  |  |  | TGI (MDA-N): > 100 µM
20 | Cc1c(CCl)c(=O)oc2c(C)c3occ(CCl)c(=O)c3cc12 |  | 31.1 µM | 32 µM | > 100 µM | 30.2 µM |  |  | 41.8 µM | 
21 | CCC(=C(c1ccc(OCc2ccccc2)cc1)c1ccc(OCc2ccccc2)cc1)c1ccc(OC)cc1 | > 100 µM |  |  | > 100 µM | > 100 µM | > 100 µM | > 100 µM | > 100 µM | 

Row | SMILES | TGI (XF 498 CNS) | TGI (RXF-631 renal) | TGI (HOP-18 NSCLC) | TGI (KM20L2 colon) | TGI (LXFL 529 NSCLC) | TGI (DLD-1 colon) | TGI (SNB-78 CNS) | TGI (DMS 114 small cell lung) | other results
22 | O=C(O)CC1(C(=O)O)CCCCC1 |  |  |  |  |  |  |  |  | TGI (MDA-N): > 100 µM
23 | COc1ccc2c(c1)[n+]([O-])c(-c1nc3ccccc3s1)c(N)[n+]2[O-] |  | > 100 µM | > 100 µM | > 100 µM | > 100 µM | > 100 µM | > 100 µM |  | 
24 | CCCCCCCCCCCC(=O)OCC1OC(n2cc(F)c(=O)[nH]c2=O)C(N)C(O)C1O (stereo not drawn) |  |  | > 100 µM | > 100 µM | > 100 µM | > 100 µM | > 100 µM | > 100 µM | 
25 | CNC1C(O)CC(OC2C/C=C(\C)C/C(C)=C/C=C/CCC(C)CNC(=O)/C=C/C=C/C2C)OC1C (stereo not drawn) | 3.76 µM | 0.401 µM | 3.08 µM |  | 0.308 µM | 1.45 µM | 3.43 µM | 0.402 µM | TGI (MDA-N): 0.367 µM
26 | CCOC(=O)c1cc2ncccc2c2ccccc12 |  |  |  |  |  |  |  |  | TGI (MDA-N): > 100 µM
27 | CN(CCC(=O)O)S(=O)(=O)c1ccccc1 |  |  |  |  |  |  |  |  | TGI (MDA-N): > 100 µM
28 | Nc1nc(N)c(-c2ccc(Cl)cc2)c(CCC(=O)Nc2cccc(C(F)(F)F)c2)n1 | > 100 µM | > 100 µM | > 100 µM | > 100 µM | > 100 µM | > 100 µM | > 100 µM | > 100 µM | 
29 | CC1C(=O)N(C)C2(CO)C(=O)O[C@H](C)C12O (stereo partly drawn) |  |  | > 100 µM |  |  | > 100 µM | > 100 µM | > 100 µM | 
30 | CCOC(=O)C1=C(C)N(NC(=O)c2ccccc2)C2(O)CCCC12C(=O)OCC (stereo not drawn) | > 100 µM | > 100 µM |  | > 100 µM | > 100 µM |  |  | > 100 µM | 
31 | CSC(=S)NNC(=O)c1ccncc1 | 50 µM | > 100 µM | > 100 µM | > 100 µM | 29.3 µM | 34.6 µM | > 100 µM | 28.6 µM | 
32 | CCCCCCCCCC(=O)OCC1OC(n2cc(F)c(=O)[nH]c2=O)C(N)C(OC(=O)CCCCCCCCC)C1O (stereo not drawn) |  |  |  | 34.8 µM | 30.2 µM |  | 36.8 µM | 29.6 µM | 
33 | O=C(NCC#CCO)C(F)(F)F | > 100 µM | > 100 µM |  |  |  | > 100 µM | > 100 µM | > 100 µM | 
34 | O=C(O)/C(Cl)=C(\Cl)C(=O)Nc1ccccc1 |  | > 100 µM | > 100 µM | > 100 µM | > 100 µM | > 100 µM | > 100 µM |  | 
35 | COC(=O)C#Cc1ccc([N+](=O)[O-])cc1 |  |  |  |  |  |  |  |  | TGI (MDA-N): 8.27 µM
36 | CC12CC3CC(C)(C1)CC(N=[N+]=[N-])(C3)C2 | > 100 µM |  | > 100 µM |  | > 100 µM | > 100 µM | > 100 µM | > 100 µM | 
37 | Nc1ccn([C@@H]2C=C(CO)[C@@H](O)[C@H]2O)c(=O)n1 |  |  | 500 µM | 500 µM and > 625 µM |  | 500 µM and > 625 µM | 156 µM and > 625 µM | 449 µM and > 625 µM | GI50 (XF 498 CNS): < 0.0625 µM; TGI (P388/ADR leukemia): 2.19 µM; TGI (P388 leukemia): 1.84 µM; GI50 (DLD-1 colon): 0.0625 µM; GI50 (SN12K1 renal): 0.0625 µM; TGI (SN12K1 renal): 83.8 µM and 160 µM; GI50 (SNB-78 CNS): 63.6 µM; GI50 (DMS 114 small cell lung): 0.0677 µM; GI50 (MDA-N): 0.05 µM; TGI (MDA-N): 500 µM
38 | Cc1ccc(S(=O)(=O)N/N=C(\C(=O)Nc2cccc([N+](=O)[O-])c2)c2nc3ccc([N+](=O)[O-])cc3[nH]c2=O)cc1 |  |  |  |  | > 100 µM | > 100 µM | > 100 µM | 99.1 µM | 
39 | ON(CCc1ccccn1)Cc1ccccc1 |  |  |  |  |  |  |  |  | TGI (MDA-N): > 100 µM
40 | Cc1cc(C)n(-c2c(O)ccc(O)c2-n2nc(C)cc2C)n1 | > 100 µM | > 100 µM |  | > 100 µM | > 100 µM | > 100 µM | > 100 µM | > 100 µM | 
41 | CN=S(=O)(C[C@]1(O)CC2OC1C1OC(C)(C)OC21)c1ccccc1 (stereo partly drawn) | > 100 µM |  |  | > 100 µM | > 100 µM |  | > 100 µM | > 100 µM | 
42 | Cc1c(Cl)ccc2c1NC(=O)C2(O)C1Cc2ccccc2C1=O (stereo not drawn) |  |  | > 100 µM | > 100 µM | > 100 µM | > 100 µM | > 100 µM | > 100 µM | 

Source: PubChem BioAssay (NCI)
